Reference: US5583155A, “6-amino-1,2-benzopyrones useful for treatment of viral diseases” (Octamer, Inc., priority 1994, dated 1996)
Converted amounts (≈) assume the structure as drawn. “Also recorded” adds a separate entry of the source. Read-outs that look alike come from different tables or passages of the source.

What was measured:
ADPRT [1] = experiment: Binding to ADPRT; settings: enzymes other than ADPRT
HIV in U937 cells = experiment: HIV growth in U937 cells without activator (syncytium-forming assay); type: cell-based, HIV-1
Description: In order to assess a possible direct effect of the drug on the growth of HIV, experiments shown in FIG. 3 were reproduced, except that conditions of virus titration (by SFU) were refined, to detect relatively low virus titers.
Transfection was 24 hours before HIV infection.

HSV-1 strain F = experiment: microbe, parasite or virus in culture; type: cell-based, Herpes simplex virus type 1
ADPRT [2] = settings: FEBS Lett., 212:73 (1987); cited from earlier work
[3] = Yakugaku Zasshi, cited from earlier work
[4] = type: in vivo
Description: This example illustrates the lack of toxicity after intraperitoneal administration of 6-ABP to mice.
Two toxicological tests administering 6-ABP to mice were performed under the following conditions.
One group of 5 mice received 6-ABP i.p. injection in amount of 1 g/kg.
Group of 50 white mice was injected daily with 250 mg/kg 6-ABP i.p. for 12 days.

HIV in AA-2 cells [5] = experiment: HIV replication in AA-2 cells (p 24 ELISA); type: cell-based; settings: 3 mM
Description: The effects of 3 mM 6-ABP on HIV replication in AA-2 cells using the same experimental set-up as for FIG. 7 was followed by the conventional analysis of p 24 formation by automated ELISA tests. The results are shown in FIG. 8, where as in FIG. 7, the influence of varying HIV concentrations infecting HIV dilution, from 1:100 to 1:1600 or p 24 input, as shown in graph, was monitored.

HIV-LTR = experiment: cells
Description: All chimeric CAT constructions were prepared in pCATB' containing the CAT structural gene without eukaryotic promoter sequence.
DNA transfection was performed with DEAE dextran. Briefly, U937 cells (5×10^6) were exposed for 60 min. at 37° C. to a mixture of DEAE Dextran (1.05 ug/ml) and DNA in STBS buffer (25 mM Tris HCl, having pH 7.5, 137 mM NaCl, 0.5 MgCl2, 0.7 mM CaCl2 and 5 mM KCl and 0.6 mM Na2 HPO4) in 15 ml snap cap 6×35 mm polyethylene dishes from Costar, Cambridge, Mass., at 5×10^6 cells per well. Routinely, transfection mixtures contained 1.0 ug of target supercoiled plasmid and 0.1 ug DNA to equalize nucleic acid concentration effects. Transfected cells were harvested 40 to 44 hr post transfection in CAT harvest buffer (40 mM Tris, having pH 7.4 150 mM NaCl, 1 mM EDTA) and stored at -20° C. until assayed.
Routine assay conditions employed 0.2 uCi of [^14 C]-chloramphenicol substrate and an incubation time of 60 min. For quantitative estimates of CAT activity and fold activation, the appropriate sections were cut from the thin-layer chromatography scintillation fluid added and the radioactivity was counted in a scintillation counter. Quantitative comparisons were made by measuring the amounts of chloramphenicol-acetate product with enzyme concentrations and time. pSV CAT was used as a positive control, and the parent (pCATB') was used as a negative control. […]

established cell lines = experiment: Intracellular drug concentration / transport in twelve cell lines; type: in vitro ADME
Description: It is of importance to determine both intracellular drug concentrations and mechanisms of drug transport. Twelve different cell types were incubated with varying concentrations of the drug for varying periods and intracellular drug concentration assayed with the aid of [5^3 H] labeled 6-ABP. […] Thus, there is a significant transport regulation through the cell membrane.

[6] = Aqueous solubility and solution stability; type: physicochemical
Influenza virus = experiment: microbe, parasite or virus in culture; type: cell-based, Influenza virus (patient isolate)
[7] = Intracellular metabolism of 6-ABP
RSV = experiment: microbe, parasite or virus in culture; type: cell-based, Respiratory Syncytium virus (patient isolate)
HIV in whole blood = experiment: HIV inhibition in whole blood of HIV infected patients; type: cell-based; settings: FIG. 10 results repeated in whole blood
HSV-2 strain G = experiment: microbe, parasite or virus in culture; type: cell-based, Herpes simplex virus type 2
HIV in AA-2 cells [8] = experiment: HIV propagation in AA-2 cells (cytopathogenicity); type: cell-based; settings: for inhibition at 3000 µM: varying HIV dilutions, read-out: HIV growth inhibition in AA-2 cells
Description: Whereas the activation of latent HIV by various DNAs and its prevention by 6-ABP were shown above, the following experiments examine the effects of 6-ABP on the direct propagation of highly virulent HIV strain obtained from NIH in Molt III cells, using cell supernatant as source of virus on AA-2 and MT2 cells in culture. More than 60 tests were performed varying virus titers, time of exposure, and exposure to 6-ABP.
The effect of 1 and 3 mM 6-ABP on the rate of HIV propagation is assayed by cytopathogenicity at a fixed HIV dilution 1:1600.
FIG. 7 illustrates the effect of 3 mM 6-ABP on HIV growth inhibition in AA-2 cells after 3 days and 6 days. The culture was exposed to 3 mM of the drug at varying HIV dilutions. 6-ABP concentration acting for 3 or 6 consecutive days on AA-2 cells is depicted as a function of virus concentration (given as HIV dilution on the abscissa).

CMV = experiment: microbe, parasite or virus in culture; type: cell-based, human cytomegalovirus (patient isolate)
[9] = 1, 5 and 10 mM, zero time vs 4 hours after infection
[10] = 1 mM 6-ABP, 24 hours before infection

Structure (SMILES): Nc1ccc2oc(=O)ccc2c1 [6-ABP, 6-amino-1,2-benzopyrone]
- effect on other enzymes (ADPRT [1]): no other enzymes are activated or inhibited
- effect on HIV growth without activator (HIV in U937 cells; 3 mM, FIGS. 3 and 4): completely inhibit any viral growth; also recorded: significant effect on HIV growth
- effect on HIV growth in absence of activating HSV gene (HIV in U937 cells; Table 2 experiment): significant reduction in HIV growth
- HIV growth, U937 + 6-ABP (HIV in U937 cells; day 3, no activator): 13 SFU/ml
- HIV growth, U937 + 6-ABP (HIV in U937 cells; day 5, no activator): 10 SFU/ml
- HIV growth, U937 + 6-ABP (HIV in U937 cells; day 6, no activator): 10 SFU/ml
- HIV growth, U937 + 6-ABP (HIV in U937 cells; day 8, no activator): 10 SFU/ml
- effect of time of drug addition, HSV-1 (F) (HSV-1 strain F; [9]): essentially no differences found between the two modes of drug exposure
- dependence of inhibitory effect on cell type (HSV-1 strain F; HSV growth in HEp-2, Vero and MRC-5 cells): not affected by cell type
- inhibition at 1000 µM (HSV-1 strain F; Human alphaherpesvirus 1, 1 mM at 0 and 4 hours post infection, respectively, read-out: inhibition of HSV-1 growth): 60 to 65%
- inhibition at 1000 µM (HSV-1 strain F; Human alphaherpesvirus 1, 1 mM, 24 hours before infection, read-out: inhibition of HSV-1 growth): 50%
- inhibition at 10000 µM (HSV-1 strain F; Human alphaherpesvirus 1, 10 mM, 0 and 4 hours post infection, read-out: inhibition of HSV-1 growth): ~80%
- inhibition at 2000 µM (HSV-1 strain F; Human alphaherpesvirus 1, HEp-2, 24 h, 2 mM, 24 hrs preexposure, HEp-2 cells, FIG. 1A, read-out: inhibition of HSV-1 strain F growth): > 50%
- IC50 (HSV-1 strain F; Human alphaherpesvirus 1, 24 hours pretreatment, HEp-2 cells, read-out: concentration for 50% inhibition of growth, HSV-1 strain F): 2000 µM
- binding to ADPRT (ADPRT [2]): specifically binding to ADPRT at the same site that also binds catalytically effective DNA termini
- hypothermal effect ([3]; 78:491 (1958)): 6-amino group decreased the hypothermal effect
- antipyretic, hypnotic, hypotensive and adrenolytic action ([3]; 83:1124 (1963)): Some antipyretic, hypnotic, hypotensive and adrenolytic action
- behavior ([4]; 250 mg/kg i.p. daily, 12 days): quite normal
- toxic effects ([4]; 250 mg/kg i.p. daily, 12 days): no visible toxic effects
- weight gain ([4]; 250 mg/kg i.p. daily, 12 days): no disruption in their normal weight gain
- seizures and weakness in one mouse ([4]; 1 g/kg i.p., 4 hours after injection, recovered in 18 hours): seizures and hind leg weakness but then completely recovered in 18 hours
- toxic symptoms ([4]; 1 g/kg i.p., single, 24 hours observation): no toxic symptoms in 4 mice
- HIV replication (HIV in AA-2 cells [5]; beyond a virus dilution of 1:1400): profoundly inhibited HIV replication
- p 24 generation (HIV in AA-2 cells [5]; day 4, 1:1400 virus dilution): completely suppressed p 24 generation
- fold induction at 5000 µM (HIV-LTR; Human immunodeficiency virus 1, U-937, read-out: Fold Activation, HSV-IE-110 + 6-ABP, 5 mM 6-ABP, HSV-IE-110): 20
- fold induction at 2000 µM (HIV-LTR; Human immunodeficiency virus 1, U-937, read-out: HIV-LTR-CAT activation by IE-110 after treatment, 2 mM 6-ABP, FIG. 5, 344-fold activation without drug): 0.4 to 0.9
- concentration of intracellular drug (established cell lines; 1 mM extracellular administration, depending on cell types): 65 to 200 µM
- intracellular plateau, % of drug concentration applied extracellularly (established cell lines; 12 established cell lines): 10-20%
- time to plateau of 6-ABP transport (established cell lines; 12 established cell lines): 18 to 24 h
- penetration of mammalian cells (established cell lines; physiological pH 7.2-7.4): to a limited degree
- solution stability ([6]; 10-12 mM solution, pH 7.2-7.9, room temperature, in the dark): stable for months at room temperature
- solubility ([6]; aqueous media, pH 7.2-7.9): 10 to 12 mM (≈ 1610 to 1930 µg/mL)
- degraded ([6]; aqueous solution, 10-12 mM solution, months at room temperature, in the dark, read-out: decomposition of solution): < 0.1%
- Virus Titer +6-ABP (Influenza) (Influenza virus; 1 mM 6-ABP, 24 hours before infection, highest dilution that caused 50% hemagglutination): 1 × 10^4
- effect on Influenza virus growth (Influenza virus; 6-ABP treatment): no effect
- inhibition at 1000 µM (Influenza virus; unidentified influenza virus, read-out: % Inhibition (Influenza)): 0%
- reduction-oxidation cycle ([7]; liver vs target cells): high in liver but much lower in target cells
- intracellular oxidation ([7]; to 6-nitroso-1,2-benzopyrone): rapid oxidation at the 6-amino position
- Virus Titer +6-ABP (RSV) (RSV; [10]): 1 × 10^5 TCID50
- effect on RSV growth (RSV; 6-ABP treatment): no effect
- inhibition at 1000 µM (RSV; human respiratory syncytial virus, 1 mM 6-ABP, 24 hours before infection): 0%
- HIV inhibition in whole blood (HIV in whole blood): essentially reproduced in whole blood of HIV infected patients
- Virus Titer +6-ABP (HSV-2) (HSV-2 strain G; [10]): 2 × 10^5 PFU per ml
- effect of time of drug addition, HSV-2 (G) (HSV-2 strain G; [9]): essentially no differences found between the two modes of drug exposure
- inhibition of HSV-2 strain G growth (HSV-2 strain G; 1-10 mM, 24 hours pretreatment, HEp-2 cells): 90-97%
- inhibition at 1000 µM (HSV-2 strain G; Human alphaherpesvirus 2, 0 h, 1 mM at 0 hours (time of infection), read-out: inhibition of HSV-2 growth): 85%
- inhibition at 1000 µM (HSV-2 strain G; Human alphaherpesvirus 2, 1 mM 6-ABP, 24 hours before infection, read-out: % Inhibition (HSV-2), Table 1): 87.5%
- inhibition at 1000 µM (HSV-2 strain G; Human alphaherpesvirus 2, 1 mM, 24 hours pretreatment, read-out: inhibition of HSV-2 growth): 90%
- inhibition at 1000 µM (HSV-2 strain G; Human alphaherpesvirus 2, 4 h, 1 mM at 4 hours post infection, read-out: inhibition of HSV-2 growth): 72%
- inhibition at 200 µM (HSV-2 strain G; Human alphaherpesvirus 2, HEp-2, 0.2 mM, 24 hours pretreatment, HEp-2 cells, read-out: inhibition of HSV-2 strain G growth): ~45%
- HIV propagation in AA-2 cells (HIV in AA-2 cells [8]; 1 mM, HIV dilution 1:1600): able to suppress the HIV propagation only slightly
- HIV replication, AA-2 cells (HIV in AA-2 cells [8]; 3 mM, Example 5): complete abrogation of HIV replication
- HIV propagation in AA-2 cells (HIV in AA-2 cells [8]; 3 mM, day 6, HIV dilution 1:1600): completely eliminates HIV propagation
- inhibition at 3000 µM (HIV in AA-2 cells [8]; Human immunodeficiency virus 1, 72 h, 3 mM, 3 days): 70 to 100%
- inhibition at 3000 µM (HIV in AA-2 cells [8]; Human immunodeficiency virus 1, 144 h, 3 mM, 6 days): 25 to 100%
- Virus Titer +6-ABP (CMV) (CMV; [10]): 1 × 10^3 TCID50
- effect on CMV growth (CMV; 6-ABP treatment): effectively inhibits CMV growth
- inhibition at 1000 µM (CMV; Human betaherpesvirus 5, 1 mM 6-ABP, 24 hours before infection): 90%
